In publication PMC9413440, “An Iterative Approach Guides Discovery of the FabI Inhibitor Fabimycin, a Late-Stage Antibiotic Candidate with In Vivo Efficacy against Drug-Resistant Gram-Negative Infections” (ACS Central Science, 2022):
In brackets after ≈: the same amount, converted by molar mass. Where two headings read alike, the source gives them in different places.

Columns and labels:
[1] = tested on: Pseudomonas aeruginosa; assay: MIC, Pseudomonas aeruginosa strains; assay type: cell-based
Description: (§1) II. Materials and Methods for Biological Experiments
(§2) S. aureus ATCC 29213 and E. coli MG1655 were obtained from the American Type Culture Collection (ATCC). E. coli BW25113 and E. coli JW5503 were obtained from the Keio Collection. AR-bank strains were obtained from the Centers for Disease Control and Prevention and FDA Antibiotic Resistance Isolate Bank.
Antimicrobial susceptibility tests
Susceptibility testing was performed in biological triplicate, unless noted otherwise, using the micro-dilution broth method as outlined by the Clinical and Laboratory Standards Institute. Bacteria were cultured with cation-adjusted Mueller Hinton broth (Sigma Aldrich, catalogue number: 90922). […]
Error bars represent the standard error of the mean of three biological replicates. All compounds evaluated in biological assays were ≥95% pure.

[2] = tested on: HFF-1, A549, HepG2 cells; settings: 72 h
Description: HFF-1 cells (newborn) were obtained from the ATCC. HFF-1 cells were grown in Dulbecco’s Modified Eagle’s minimum essential medium with 15% fetal bovine serum (Gemini Benchmark; catalogue number: 100-106), 100 µg/mL penicillin and 100 µg/mL streptomycin. A549 cells ([…], adult) were obtained from the ATCC. A549 cells were grown in Roswell Park Memorial Institute (RPMI) media with 100 µg/mL penicillin and 10% fetal bovine serum (FBS). HepG2 cells were authenticated by the University of Arizona Genetics Core using an autosomal STR profile. HepG2 cells were grown in Dulbecco’s Modified Eagle’s minimum essential medium with 10% fetal bovine serum. All cells were cultured at 37 °C under a 5% CO2 environment. Cell lines were authenticated by a commercial vendor and inspected visually in house. Cell lines were not tested for Mycoplasma contamination. The media was prepared by the University of Illinois School of Chemical Sciences Cell Media Facility.
(§3) H. sapiens HFF-1, A549, and HepG2 cells were seeded (3,000-6,000 cells/well) in a 96-well plate (Greiner Bio-One;

[3] = tested on: E. coli MG1655; assay: Time-kill kinetics; assay type: cell-based, Escherichia coli; settings: E. coli MG1655, over 8 h
Description: An overnight culture of E. coli MG1655 was diluted in 5 mL of MH broth to ~5.0 * 10^5 CFU/mL and incubated at 37 °C […]
while shaking for 1 hour. […]
the course of 8 hours. At each time point 100 µL of culture was collected and serially diluted in sterile PBS before plating on drug-free agar plates. Colonies were counted after incubation at 37 °C overnight and CFU/mL calculated. […]
All cells were cultured […]
at 37 °C under a 5% CO2 environment. Cell lines were authenticated by a commercial vendor and inspected visually in house. Cell lines were not tested for Mycoplasma contamination. The media was prepared by the University of Illinois School of Chemical Sciences Cell Media Facility.
as §3

[4] = tested on: A. baumannii 19606; assay: MIC, broth microdilution (CLSI); assay type: cell-based; settings: Acinetobacter baumannii
How it was run: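 MIC by CLSI micro-dilution broth method; medium cation-adjusted Mueller Hinton broth; biological triplicate unless stated otherwise.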

[5] = tested on: E. coli MG1655; assay: Whole-cell accumulation assay (LC-MS/MS); assay type: cell-based, Escherichia coli
Description: as §1
as §2, with “Bank. […]” for “Bank.”
The accumulation assay4 was performed in triplicate with each batch containing tetracycline as a positive control. E. coli MG1655 was used in these experiments. For each replicate, 2.5 mL of an overnight culture of E. coli was diluted into 250 mL of fresh Luria Bertani (LB) broth (Lennox) and grown at 37 °C with shaking to an optical density (OD600) of 0.55. The bacteria were pelleted at 3220 r.c.f. for 10 min at 4 °C and the supernatant was discarded. The pellets were resuspended in 40 mL of phosphate buffered saline (PBS) and pelleted as before, and the supernatant discarded. […] The number of colony-forming units (CFUs) was determined by a calibration curve. […] Supernatants were analyzed by LC-MS/MS.
Samples were analyzed with the […] LC-MS/MS system (AB Sciex) with a 1200 series HPLC system (Agilent Technologies) including a degasser, an autosampler, and a binary pump. […]
The source temperature was 450 °C. […] Multiple reaction monitoring was used for quantification. […] All compounds evaluated in biological assays were ≥95% pure.

Cc1c(CN(C)C(=O)/C=C/c2cnc3c(c2)CC[C@H](N)C(=O)N3)oc2ccccc12 [fabimycin]
MIC ([1]; P. aeruginosa AR-0229): >128 µg/mL
MIC ([1]; P. aeruginosa AR-0230): >128 µg/mL
MIC ([1]; P. aeruginosa AR-0231): >128 µg/mL
MIC ([1]; P. aeruginosa AR-0233): >128 µg/mL
MIC ([1]; P. aeruginosa AR-0234): >128 µg/mL
MIC ([1]; P. aeruginosa AR-0235): >128 µg/mL
MIC ([1]; P. aeruginosa AR-0609): >128 µg/mL
MIC ([1]; P. aeruginosa AR-0610): >128 µg/mL
MIC ([1]; Pseudomonas aeruginosa, ATCC27853, P. aeruginosa ATCC 27853, read-out: MIC): > 128 µg/mL
MIC ([1]; Pseudomonas aeruginosa, P. aeruginosa AR-0232, read-out: MIC): > 128 µg/mL
cytotoxicity against human cell lines [2]: less cytotoxic relative to Debio-1452-NH3
rate of killing, time-kill growth curve [3]: not profoundly bactericidal
MIC [4]: 2 µg/mL (≈ 4.94 µM)

Cc1c(CN(C)C(=O)/C=C/c2cnc3c(c2)CCCC(=O)N3)oc2ccccc12 [compound 10]
whole-cell accumulation [5]: reduced whole-cell accumulation
